In ChEMBL document CHEMBL3352057, “Novel fluorinated pyrrolo[1,2-a]pyrazine-2,6-dione derivatives: synthesis and anticonvulsant evaluation in animal models of epilepsy” (Bioorg Med Chem, 2014):
Calls of active or inactive are those of the source.

What was measured:
[1] = test system: Rattus norvegicus; experiment: Neurotoxicity in MES Sprague-Dawley rat model at 30 mg/kg, po measured after 1 hr; assay type: toxicity, organism-based; parameters: dose 30 mg/kg, route oral; conditions: in vivo
[2] = test system: Rattus norvegicus; experiment: Neurotoxicity in MES Sprague-Dawley rat model at 30 mg/kg, po measured after 0.25 hr; assay type: toxicity, organism-based; parameters: dose 30 mg/kg, route oral; conditions: in vivo
[3] = test system: Mus musculus; experiment: Anticonvulsant activity in albino CF1 mouse assessed as protection against 32 mA current-induced seizures at 100 mg/kg, ip measured after 0.25 hr; assay type: functional, organism-based; parameters: dose 100 mg/kg
[4] = test system: Rattus norvegicus; experiment: Anticonvulsant activity in Sprague-Dawley rat assessed as protection against maximal electroshock-induced seizures at 30 mg/kg, po measured after 2 hrs; assay type: functional, organism-based; parameters: dose 30 mg/kg
[5] = test system: Mus musculus; experiment: Neurotoxicity in 32 mA current-induced seizure albino CF1 mouse model at 100 mg/kg, ip measured after 1 hr; assay type: toxicity, organism-based; parameters: dose 100 mg/kg, route intraperitoneal; conditions: in vivo
[6] = test system: Rattus norvegicus; experiment: Neurotoxicity in MES Sprague-Dawley rat model at 30 mg/kg, ip measured after 0.25 hr; assay type: toxicity, organism-based; parameters: dose 30 mg/kg, route intraperitoneal; conditions: in vivo
[7] = test system: Rattus norvegicus; experiment: Neurotoxicity in MES Sprague-Dawley rat model at 30 mg/kg, ip measured after 1 hr; assay type: toxicity, organism-based; parameters: dose 30 mg/kg, route intraperitoneal; conditions: in vivo
[8] = test system: Rattus norvegicus; experiment: Anticonvulsant activity in Sprague-Dawley rat assessed as protection against maximal electroshock-induced seizures at 30 mg/kg, ip measured after 0.25 hr; assay type: functional, organism-based; parameters: dose 30 mg/kg
[9] = test system: Mus musculus; experiment: Anticonvulsant activity in ip dosed corneal kindled albino CF1 mouse seizure model assessed as time to peak effect; assay type: functional
[10] = test system: Mus musculus; experiment: Anticonvulsant activity in ip dosed albino CF1 mouse assessed as protection against 32 mA current-induced seizures; assay type: functional
[11] = test system: Mus musculus; experiment: Anticonvulsant activity in albino CF1 mouse assessed as protection against maximal electroshock-induced seizures at 100 mg/kg, ip measured after 0.5 hr; assay type: functional, organism-based; parameters: dose 100 mg/kg
[12] = test system: Mus musculus; experiment: Anticonvulsant activity in ip dosed albino CF1 mouse assessed as protection against maximal electroshock-induced seizures measured as time to peak effect; assay type: functional
[13] = test system: Rattus norvegicus; experiment: Anticonvulsant activity in Sprague-Dawley rat assessed as protection against maximal electroshock-induced seizures at 30 mg/kg, ip measured after 1 hr; assay type: functional, organism-based; parameters: dose 30 mg/kg
[14] = test system: Mus musculus; experiment: Anticonvulsant activity in ip dosed corneal kindled albino CF1 mouse seizure model; assay type: functional
[15] = test system: Mus musculus; experiment: Neurotoxicity in albino CF1 mouse at 100 mg/kg, ip measured after 0.25 hr; assay type: toxicity, organism-based; parameters: dose 100 mg/kg, route intraperitoneal; conditions: in vivo
[16] = test system: Rattus norvegicus; experiment: Neurotoxicity in MES Sprague-Dawley rat model at 30 mg/kg, po measured after 0.5 hr; assay type: toxicity, organism-based; parameters: dose 30 mg/kg, route oral; conditions: in vivo
[17] = test system: Mus musculus; experiment: Anticonvulsant activity in albino CF1 mouse assessed as protection against subcutaneous metrazol-induced seizures at 100 mg/kg, ip measured after 0.5 hr; assay type: functional, organism-based; parameters: dose 100 mg/kg
[18] = test system: Rattus norvegicus; experiment: Anticonvulsant activity in Sprague-Dawley rat assessed as protection against maximal electroshock-induced seizures at 30 mg/kg, ip measured after 4 hrs; assay type: functional, organism-based; parameters: dose 30 mg/kg
[19] = test system: Mus musculus; experiment: Anticonvulsant activity in albino CF1 mouse assessed as protection against subcutaneous metrazol-induced seizures at 100 mg/kg, ip measured after 4 hrs; assay type: functional, organism-based; parameters: dose 100 mg/kg
[20] = test system: Mus musculus; experiment: Neurotoxicity in albino CF1 mouse at 100 mg/kg, ip measured after 0.5 hr; assay type: toxicity, organism-based; parameters: dose 100 mg/kg, route intraperitoneal; conditions: in vivo
[21] = test system: Rattus norvegicus; experiment: Neurotoxicity in MES Sprague-Dawley rat model at 30 mg/kg, ip measured after 0.5 hr; assay type: toxicity, organism-based; parameters: dose 30 mg/kg, route intraperitoneal; conditions: in vivo
[22] = test system: Rattus norvegicus; experiment: Anticonvulsant activity in Sprague-Dawley rat assessed as protection against maximal electroshock-induced seizures at 30 mg/kg, po measured after 4 hrs; assay type: functional, organism-based; parameters: dose 30 mg/kg
[23] = test system: Mus musculus; experiment: Neurotoxicity in albino CF1 mouse assessed as loss of righting reflex at 100 mg/kg, ip measured after 0.25 hr; assay type: toxicity, organism-based; parameters: dose 100 mg/kg, route intraperitoneal; conditions: in vivo
[24] = test system: Mus musculus; experiment: Anticonvulsant activity in albino CF1 mouse assessed as protection against 32 mA current-induced seizures at 100 mg/kg, ip measured after 2 hrs; assay type: functional, organism-based; parameters: dose 100 mg/kg
[25] = test system: Rattus norvegicus; experiment: Neurotoxicity in MES Sprague-Dawley rat model at 30 mg/kg, ip measured after 2 hrs; assay type: toxicity, organism-based; parameters: dose 30 mg/kg, route intraperitoneal; conditions: in vivo
[26] = test system: Rattus norvegicus; experiment: Anticonvulsant activity in Sprague-Dawley rat assessed as protection against maximal electroshock-induced seizures at 30 mg/kg, po measured after 0.5 hr; assay type: functional, organism-based; parameters: dose 30 mg/kg
[27] = Protective index, ratio of TD50 for neurotoxicity in ip dosed albino CF1 mouse to ED50 for anticonvulsant activity in ip dosed MES albino CF1 mouse model; assay type: toxicity, organism-based; conditions: in vivo, read-out: Ratio TD50/ED50
[28] = test system: Rattus norvegicus; experiment: Neurotoxicity in MES Sprague-Dawley rat model at 30 mg/kg, po measured after 4 hrs; assay type: toxicity, organism-based; parameters: dose 30 mg/kg, route oral; conditions: in vivo
[29] = test system: Rattus norvegicus; experiment: Anticonvulsant activity in Sprague-Dawley rat assessed as protection against maximal electroshock-induced seizures at 30 mg/kg, ip measured after 2 hrs; assay type: functional, organism-based; parameters: dose 30 mg/kg
[30] = test system: Mus musculus; experiment: Anticonvulsant activity in albino CF1 mouse assessed as protection against maximal electroshock-induced seizures at 100 mg/kg, ip measured after 4 hrs; assay type: functional, organism-based; parameters: dose 100 mg/kg
[31] = test system: Mus musculus; experiment: Anticonvulsant activity in albino CF1 mouse assessed as protection against 32 mA current-induced seizures at 100 mg/kg, ip measured after 0.5 hr; assay type: functional, organism-based; parameters: dose 100 mg/kg
[32] = test system: Rattus norvegicus; experiment: Anticonvulsant activity in pilocarpine-induced status prevention Sprague-Dawley rat model assessed as weight change 24 hrs post-first stage 3 seizure of protected rat at 200 mg/kg, ip; assay type: functional; conditions: route intraperitoneal
[33] = test system: Mus musculus; experiment: Neurotoxicity in 32 mA current-induced seizure albino CF1 mouse model at 100 mg/kg, ip measured after 0.5 hr; assay type: toxicity, organism-based; parameters: dose 100 mg/kg, route intraperitoneal; conditions: in vivo
[34] = test system: Mus musculus; experiment: Anticonvulsant activity in albino CF1 mouse assessed as protection against maximal electroshock-induced seizures at 100 mg/kg, ip measured after 0.25 hr; assay type: functional, organism-based; parameters: dose 100 mg/kg
[35] = test system: Mus musculus; experiment: Neurotoxicity in albino CF1 mouse at 100 mg/kg, ip measured after 1 hr; assay type: toxicity, organism-based; parameters: dose 100 mg/kg, route intraperitoneal; conditions: in vivo
[36] = test system: Mus musculus; experiment: Neurotoxicity in albino CF1 mouse at 100 mg/kg, ip measured after 4 hrs; assay type: toxicity, organism-based; parameters: dose 100 mg/kg, route intraperitoneal; conditions: in vivo
[37] = test system: Mus musculus; experiment: Neurotoxicity in 32 mA current-induced seizure albino CF1 mouse model at 100 mg/kg, ip measured after 0.25 hr; assay type: toxicity, organism-based; parameters: dose 100 mg/kg, route intraperitoneal; conditions: in vivo
[38] = test system: Mus musculus; experiment: Anticonvulsant activity in ip dosed albino CF1 mouse assessed as protection against maximal electroshock-induced seizures; assay type: functional
[39] = test system: Mus musculus; experiment: Anticonvulsant activity in albino CF1 mouse assessed as protection against 32 mA current-induced seizures at 100 mg/kg, ip measured after 1 hr; assay type: functional, organism-based; parameters: dose 100 mg/kg
[40] = test system: Mus musculus; experiment: Neurotoxicity in 32 mA current-induced seizure albino CF1 mouse model at 100 mg/kg, ip measured after 4 hrs; assay type: toxicity, organism-based; parameters: dose 100 mg/kg, route intraperitoneal; conditions: in vivo
[41] = test system: Mus musculus; experiment: Anticonvulsant activity in ip dosed albino CF1 mouse assessed as protection against subcutaneous metrazol-induced seizures; assay type: functional
[42] = test system: Mus musculus; experiment: Anticonvulsant activity in albino CF1 mouse assessed as protection against subcutaneous metrazol-induced seizures at 300 mg/kg, ip measured after 0.5 hr; assay type: functional, organism-based; parameters: dose 300 mg/kg
[43] = test system: Mus musculus; experiment: Anticonvulsant activity in ip dosed albino CF1 mouse assessed as protection against 6 Hz current-induced seizures measured as time to peak effect; assay type: functional
[44] = test system: Rattus norvegicus; experiment: Anticonvulsant activity in Sprague-Dawley rat assessed as protection against maximal electroshock-induced seizures at 30 mg/kg, ip measured after 0.5 hr; assay type: functional, organism-based; parameters: dose 30 mg/kg
[45] = Neurotoxicity in ip dosed albino CF1 mouse measured at 0.25 hr post dose; assay type: toxicity, organism-based; conditions: in vivo
[46] = test system: Rattus norvegicus; experiment: Anticonvulsant activity in Sprague-Dawley rat assessed as protection against maximal electroshock-induced seizures at 30 mg/kg, po measured after 0.25 hr; assay type: functional, organism-based; parameters: dose 30 mg/kg
[47] = test system: Rattus norvegicus; experiment: Neurotoxicity in MES Sprague-Dawley rat model at 30 mg/kg, ip measured after 4 hrs; assay type: toxicity, organism-based; parameters: dose 30 mg/kg, route intraperitoneal; conditions: in vivo
[48] = test system: Rattus norvegicus; experiment: Anticonvulsant activity in Sprague-Dawley rat assessed as protection against maximal electroshock-induced seizures at 30 mg/kg, po measured after 1 hr; assay type: functional, organism-based; parameters: dose 30 mg/kg
[49] = test system: Mus musculus; experiment: Anticonvulsant activity in albino CF1 mouse assessed as protection against maximal electroshock-induced seizures at 100 mg/kg, ip measured after 1 hr; assay type: functional, organism-based; parameters: dose 100 mg/kg
[50] = test system: Rattus norvegicus; experiment: Anticonvulsant activity in pilocarpine-induced status prevention Sprague-Dawley rat model assessed as weight change 24 hrs post-first stage 3 seizure of non-protected rat at 200 mg/kg, ip measured after 0.5 hr; assay type: functional; conditions: route intraperitoneal
[51] = test system: Mus musculus; experiment: Anticonvulsant activity in albino CF1 mouse assessed as protection against 32 mA current-induced seizures at 100 mg/kg, ip measured after 4 hrs; assay type: functional, organism-based; parameters: dose 100 mg/kg
[52] = test system: Mus musculus; experiment: Neurotoxicity in 32 mA current-induced seizure albino CF1 mouse model at 100 mg/kg, ip measured after 2 hrs; assay type: toxicity, organism-based; parameters: dose 100 mg/kg, route intraperitoneal; conditions: in vivo
[53] = test system: Rattus norvegicus; experiment: Neurotoxicity in MES Sprague-Dawley rat model at 30 mg/kg, po measured after 2 hrs; assay type: toxicity, organism-based; parameters: dose 30 mg/kg, route oral; conditions: in vivo
[54] = Neurotoxicity in ip dosed albino CF1 mouse; assay type: toxicity, organism-based; conditions: in vivo

Cl.O=C1NC(=O)[C@@H]2CCCN2[C@H]1c1cccc(C(F)(F)F)c1
0.25 h: Time [9] | Time [12]
0.5 h: Time [43]
Non-toxic: Activity [1] | Activity [2] | Activity [5] | Activity [6] | Activity [7] | Activity [16] | Activity [20] | Activity [21] | Activity [25] | Activity [28] | Activity [33] | Activity [35] | Activity [36] | Activity [37] | Activity [40] | Activity [47] | Activity [52] | Activity [53]
inactive: Activity [4] | Activity [8] | Activity [11] | Activity [13] | Activity [17] | Activity [18] | Activity [19] | Activity [22] | Activity [24] | Activity [26] | Activity [29] | Activity [30] | Activity [39] | Activity [44] | Activity [46] | Activity [48] | Activity [51]
165 µmol/kg: ED50 [38]
116 µmol/kg: ED50 [14]
269 µmol/kg: TD50 [54]
Toxic: Activity [15] | Activity [23]
1.6: selectivity ratio [27]
-25 g: Activity [50]
119 µmol/kg: ED50 [10]
active: Activity [3] | Activity [31] | Activity [34] | Activity [42] | Activity [49]
166 µmol/kg: TD50 at 0.25 h [45]
218 µmol/kg: ED50 [41]
-3.8 g: Activity [32]
